Data as given in patent publication US4666908A, “5-Substituted pyrazolo[4,3-d]pyrimidine-7-ones and methods of use” (Warner-Lambert Company, priority 1985, dated 1987).
Where two headings read alike, the source gives them in different places.

How the values were obtained:
[1] = system: pentobarbital-anesthetized dog; experiment: In Vivo Myocardial Inotropic Activity in Anesthetized Dog (CVAD); design: species or system dog (adult mongrel); conditions: for change in vivo at 0.1 mg/kg / change in vivo at 0.3 mg/kg / change in vivo at 1 mg/kg / change in vivo at 3.1 mg/kg / change in vivo at 10 mg/kg / change in vivo at 0.31 mg/kg: Canis lupus familiaris, iv; for change in vivo at 0.3 mg/kg: 0.30 mg/kg IV; for change in vivo at 1 mg/kg: 1.00 mg/kg IV; for change in vivo at 10 mg/kg: 10.00 mg/kg IV; for change in vivo at 0.31 mg/kg: 0.31 mg/kg IV
Experimental: This test procedure is described in the following paragraphs.
This screen consists of determining the effects of increasing intravenous doses of compound on mycardial contractility (dP/dt max of left ventricular blood pressure), heart rate, and aortic blood pressure of the pentobarbital-anesthetized dog.
Adult mongrel dogs of either sex are anesthetized with pentobarbital, 35 mg/kg, IV, and are subsequently maintained under anesthesia with a continuous infusion of pentobarbital, 3.5 mg/kg/hour. The trachea is intubated but the animals are permitted to breathe spontaneously. A cannula is inserted into the femoral vein for administrating test agents. A Millar catheter tip pressure transducer or a fluid filled catheter is inserted into the ascending aorta via the femoral artery for measuring aortic blood pressure. A Millar catheter tip pressure transducer is passed into the left ventricle via the left carotid artery for measuring left ventricular blood pressure. Needle electrodes are placed subcutaneously for recording a lead II electrocardiogram (ECG).
Left ventricular and aortic blood pressures are recorded on a strip chart recorder. Heart rate, using a biotachometer triggered from the R wave of the ECG, and the first derivative of left ventricular blood pressure (dP/dt), obtained with a differentiator amplifier coupled to the corresponding pressure amplifier, are also recorded. A period of at least 30 minutes is utilized to obtain control data prior to administration of test compound.
Ethanol or dimethylacetamide can be used as solvents if adequate dilutions can be made. Appropriate vehicle controls are administered when needed.
Each dose of the test compound is administered in a volume of […] over a period of one minute.

Type 1 Phosphodiesterase = experiment: Phosphodiesterase (PDE) Inhibition, Type 1 Phosphodiesterase; assay type: biochemical, bovine (coronary arteries); conditions: Type 1 PDE, at 10^-5 M; for % Inhibition of hydrolysis of 3H-cAMP: substrate 3H-cAMP 1.0 μM; for % Inhibition of hydrolysis of 3H-cGMP: substrate 3H-cGMP 1.0 μM
Description: (§1) The method of Thompson, et al (Thompson, W. J., Terasaki, W. L., Epstein, P. M., Strada, S. J., Adv. Cyclic Nucleotide Res., 10:69-92, 1979), with minor modifications, was used to isolate phosphodiesterases from vascular smooth muscle. Bovine coronary arteries (right, anterior descending, and left circumflex arteries) from hearts obtained from a local slaughterhouse were used for these studies. Arteries from two hearts were used for each isolation. Hearts were kept on ice and the arteries were dissected within two hours after the animals were sacrificed. After removing all fat and connective tissue, the arteries were everted, cut into cubes with a single edge razor blade and homogenized with a Brinkman Polytron three times at a rheostat setting of 10.0 in four volumes of the PDE isolation buffer (10 mM Tris-HCl/pH 7.5, 2 mM MgCl2, and 1 mM dithiothreitol). The resulting homogenate was sonicated (30 sec/ml homogenate) and then centrifuged at 30,000 xg for 20 minutes. This and all subsequent procedures were performed at 4° C. The resulting supernatant was filtered through four layers of gauze, and applied to a DEAE-cellulose column (30×1.5 cm), prepared as described by Cheung (Cheung, W. Y., Biochim. Biophys. Acta, 191:303-315, 1969), and equilibrated with freshly prepared 70 mM sodium acetate/5 mM 2-mercaptoethanol (pH 6.5). The column was then washed with 2-3 bed volumes of sodium acetate/2-mercaptoethanol, after which the phosphodiesterases were eluted from the column using a continuous 70-1,000 mM sodium acetate gradient (pH 6.5, containing 5 mM 2-mercaptoethanol; total volume 400 ml). The flow rate was approximately equal to 25 ml/hr. Eight ml fractions were collected and assayed for cyclic AMP- and cyclic GMP-phosphodiesterase activity in the presence and absence of 0.1 units of calmodulin and 10 mM CaCl2. Appropriate fractions were pooled and dialyzed against 70 mM sodium acetate/5 mM 2-mercaptoethanol for 20 hours.
(§2) Following complete separation, the combined phosphodiesterase fractions were concentrated to 14% of the original volume using an Amicon ultrafiltration cell fitted with a UM-10 membrane, according to the method of Wells, et al (Wells, J. N., Baird, C. E., Wu, Y. J., Hardman, J. G., Biochim. Biophys. Acta, 384:430-442, 1975). Following concentration, the protein was then diluted to 65% with ethylene glycol monoethyl ether, and stored at -20° C.
(§3) Phosphodiesterase activity was measured as described previously (Weishaar, P. E., Quade, M., Boyd, D., Schenden, J., Mark, S. S., Kaplan, H. R., Drug Devel. Res., 3:517-534, 1983), in a reaction medium containing 40 mM Tris-HCl (pH 8.0), 5 mM MgCl and 4 mM 2-mercaptoethanol. Unless otherwise noted, the concentration of substrate (^3 H-cyclic AMP or ^3 H-cyclic GMP) was 1.0 μM. All agents examined were dissolved in dimethyl sulfoxide (DMSO). Final concentration of the reaction medium was either 2.5% (cardiac and platelet studies) or 1.25% (smooth muscle studies). This concentration of DMSO produced an approximately 10% inhibition of enzyme activity.

adenosine A1 receptor = target: T1, adenosine A1 receptor (Rattus norvegicus, UniProt P25099); experiment: Adenosine Receptor Binding - A1 Receptor Affinity (RBA1), [3H]-N6-cyclohexyladenosine displacement; conditions: [3H]-CHA 1.0 nM, rat brain membranes, 25° C., one hour; read-out: RBA-1, IC50 for adenosine A1 receptor affinity
T1 construct: Whole brain minus cerebellum and brainstem from male Long Evans rats; from tissue; host or cells: whole brain minus cerebellum and brainstem, male Long Evans rats (membranes)
T1 sequence (P25099 1-326): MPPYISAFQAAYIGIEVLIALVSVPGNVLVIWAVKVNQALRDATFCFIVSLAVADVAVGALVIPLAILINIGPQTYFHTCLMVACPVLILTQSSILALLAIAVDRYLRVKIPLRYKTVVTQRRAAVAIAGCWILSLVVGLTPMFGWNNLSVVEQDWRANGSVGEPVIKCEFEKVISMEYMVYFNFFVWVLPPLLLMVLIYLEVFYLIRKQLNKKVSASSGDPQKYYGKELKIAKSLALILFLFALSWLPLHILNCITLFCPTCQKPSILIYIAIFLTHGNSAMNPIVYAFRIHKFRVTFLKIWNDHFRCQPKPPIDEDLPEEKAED
Experimental: Whole brain minus cerebellum and brainstem from male Long Evans rats (150-200 g) was homogenized in 30 volumes of ice-cold 0.05M Tris-HCl buffer pH 7.7 using a Brinkman Polytron PT-10, (setting number 6 for 20 seconds) and centrifuged for ten minutes at 20,000×g (Sorvall RC-2), 4° C. The supernatant was discarded, and the pellet was resuspended and centrifuged as before. […] The homogenate was again centrifuged, and the final pellet was resuspended in ice-cold 0.05 M Tris-HCl buffer pH 7.7 to a concentration of 20 mg/ml original wet tissue weight and used immediately. […] Incubation volume was 2 ml. […] The filters were rinsed three times with 5 ml of ice cold 0.05 M Tris-HCl buffer pH 7.7. The radio-labeled ligand retained on the filter was measured by liquid scintillation spectrophotometry after shaking the filters for one hour or longer on a mechanical shaker in 10 ml of Beckman Ready-Solv HP scintillation cocktail. […] The Hill coefficient was calculated by linear regression of the line obtained by plotting the log of the bound radioligand vs the log of the [formula] The maximal number of binding sites (Bmax) was calculated from the Scatchard plot.

Type 3 Phosphodiesterase = experiment: Phosphodiesterase (PDE) Inhibition, Type 3 Phosphodiesterase; assay type: biochemical, bovine (coronary arteries); conditions: Type 3 PDE, at 10^-5 M, substrate 3H-cAMP 1.0 μM
Description: as §1, §2, §3

[2] = 0.10 mg/kg IV, read-out: Percent Change Blood Pressure
[3] = 0.10 mg/kg IV, read-out: Percent Change Heart Rate
[4] = 0.10 mg/kg IV, read-out: Percent Change Myocardial Contractility
[5] = read-out: Percent Change Blood Pressure
[6] = read-out: Percent Change Heart Rate
[7] = read-out: Percent Change Myocardial Contractility
[8] = 3.10 mg/kg IV, read-out: Percent Change Blood Pressure
[9] = 3.10 mg/kg IV, read-out: Percent Change Heart Rate
[10] = 3.10 mg/kg IV, read-out: Percent Change Myocardial Contractility

Row | SMILES | % Inhibition of hydrolysis of 3H-cAMP (Type 1 Phosphodiesterase) [%] | % Inhibition of hydrolysis of 3H-cGMP (Type 1 Phosphodiesterase) [%] | IC50 (adenosine A1 receptor) [nM] | % Inhibition of hydrolysis of 3H-cAMP (Type 3 Phosphodiesterase) [%] | change in vivo at 0.1 mg/kg [1, 2] [%] | change in vivo at 0.1 mg/kg [1, 3] [%] | change in vivo at 0.1 mg/kg [1, 4] [%] | change in vivo at 0.3 mg/kg [1, 5] [%] | change in vivo at 0.3 mg/kg [1, 6] [%] | change in vivo at 0.3 mg/kg [1, 7] [%] | change in vivo at 1 mg/kg [1, 5] [%] | change in vivo at 1 mg/kg [1, 6] [%] | change in vivo at 1 mg/kg [1, 7] [%] | change in vivo at 3.1 mg/kg [1, 8] [%] | change in vivo at 3.1 mg/kg [1, 9] [%] | change in vivo at 3.1 mg/kg [1, 10] [%] | change in vivo at 10 mg/kg [1, 7] [%] | change in vivo at 0.31 mg/kg [1, 6] [%] | change in vivo at 0.31 mg/kg [1, 7] [%] | other results
1 | Cc1nn(C)c2c(=O)[nH]c(-c3cccc([N+](=O)[O-])c3)nc12 [Example 13, 1,3-Dimethyl-5-(3-nitrophenyl)pyrazolo[4,3-d]pyrimidine-7-one] | 30 | 18 | 1200 | 50 | -2 | 2 | 6 | -4 | 4 | 5 | -7 | -3 | -7 | -12 | -3 | 6 | 101 |  |  | 
2 | Cc1ccc(-c2nc3c(C)nn(C)c3c(=O)[nH]2)cc1 [Example 8, 1,3-Dimethyl-5-(4-methylphenyl)pyrazolo[4,3-d]pyrimidine-7-one] | 14 | 15 | 417 | 15 | -1 | 5 | 7 | 0 | 5 | 10 | 3 | 6 | 20 | 3 | 10 | 22 | 82 |  |  | 
3 | CCn1nc(C)c2nc(-c3ccncc3)[nH]c(=O)c21 [Example 3, 1-Ethyl-3-methyl-5-(4-pyridyl)pyrazolo[4,3-d]pyrimidine-7-one] | 33 | 19 | 237 | 55 | 2 | 4 | 12 | 2 | 7 | 20 | 2 | -1 | 47 | 8 | 16 | 91 |  |  |  | 
4 | Cc1nn(C)c2c(=O)[nH]c(-c3ccncc3)nc12 [Example 2, 1,3-Dimethyl-5-(4-pyridyl)-pyrazolo[4,3-d]pyrimidine-7-one] | 5 | 13 | 953 | 20 | 0 | 1 | 4 |  |  |  |  | 28 | 53 |  | 49 | 121 |  | 1 | 7 | 

Continued, in another order:

Row | % Inhibition of hydrolysis of 3H-cAMP (Type 1 Phosphodiesterase) [%] | % Inhibition of hydrolysis of 3H-cGMP (Type 1 Phosphodiesterase) [%] | IC50 (adenosine A1 receptor) [nM] | % Inhibition of hydrolysis of 3H-cAMP (Type 3 Phosphodiesterase) [%] | SMILES | change in vivo at 0.1 mg/kg [1, 2] [%] | change in vivo at 0.1 mg/kg [1, 3] [%] | change in vivo at 0.1 mg/kg [1, 4] [%] | change in vivo at 0.3 mg/kg [1, 5] [%] | change in vivo at 0.3 mg/kg [1, 6] [%] | change in vivo at 0.3 mg/kg [1, 7] [%] | change in vivo at 1 mg/kg [1, 5] [%] | change in vivo at 1 mg/kg [1, 6] [%] | change in vivo at 1 mg/kg [1, 7] [%] | change in vivo at 3.1 mg/kg [1, 8] [%] | change in vivo at 3.1 mg/kg [1, 9] [%] | change in vivo at 3.1 mg/kg [1, 10] [%] | change in vivo at 10 mg/kg [1, 7] [%] | change in vivo at 0.31 mg/kg [1, 6] [%] | change in vivo at 0.31 mg/kg [1, 7] [%] | other results
5 | 5 | 3 | 887 | 0 | Cc1nn(C)c2c(=O)[nH]c(-c3ccc(Cl)c(Cl)c3)nc12 [Example 15, 1,3-Dimethyl-5-(3,4-dichlorophenyl)pyrazolol[4,3-d]-pyrimidine-7one] |  | 7 | 8 |  |  |  |  | 9 | 13 |  | 12 | 13 |  | 7 | 10 | Percent Change Blood Pressure ([1]; 0.10 mg/kg IV): 1/2; Percent Change Blood Pressure ([1]; 3.10 mg/kg IV): 1/2
6 | 7 | 5 | 8500 | 7 | Cc1nn(C)c2c(=O)[nH]c(-c3ccc(Cl)cc3[N+](=O)[O-])nc12 [Example 18, 1,3-Dimethyl-5-(2-nitro-4-chlorophenyl)pyrazolo-[4,3-d]pyrimidine-7-one] |  |  |  |  |  |  |  |  |  |  |  |  |  |  |  | 
